Experimental data as given in patent US10590116B2, “3-indolyl furanoids as inhibitors of matrix metalloproteinase-9 for prevention of gastric ulcer and other inflammatory diseases” (Council of Scientific & Industrial Research, priority 2017, dated 2020).

Target: MMP-9 (Homo sapiens, UniProt P14780)
Experiment: In vitro analysis of anti-ulcer efficacy (structure-activity discussion)
Details: method not described

Chain of MMP-9 (P14780 94-707, species assumed): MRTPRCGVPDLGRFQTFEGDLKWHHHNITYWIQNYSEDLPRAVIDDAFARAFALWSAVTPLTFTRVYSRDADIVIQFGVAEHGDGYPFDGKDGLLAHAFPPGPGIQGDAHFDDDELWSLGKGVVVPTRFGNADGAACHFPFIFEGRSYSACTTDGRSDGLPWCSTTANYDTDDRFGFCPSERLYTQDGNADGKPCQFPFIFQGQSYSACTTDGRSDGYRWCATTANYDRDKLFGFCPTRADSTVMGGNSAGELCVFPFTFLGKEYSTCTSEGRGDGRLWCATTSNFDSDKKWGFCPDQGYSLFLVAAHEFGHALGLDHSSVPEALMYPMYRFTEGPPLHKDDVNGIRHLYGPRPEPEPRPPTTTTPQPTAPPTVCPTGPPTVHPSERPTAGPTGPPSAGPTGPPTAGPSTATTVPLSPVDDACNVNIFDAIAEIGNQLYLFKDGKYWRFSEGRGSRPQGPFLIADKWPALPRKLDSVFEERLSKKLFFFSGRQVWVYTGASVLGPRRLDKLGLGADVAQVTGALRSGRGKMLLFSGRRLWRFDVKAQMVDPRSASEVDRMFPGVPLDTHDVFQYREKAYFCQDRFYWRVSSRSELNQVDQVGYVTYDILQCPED

SMILES	anti-ulcer efficacy in vitro
C=CCOc1ccc2[nH]cc(-c3cc(-c4ccccc4)oc3-c3ccccc3)c2c1 [compound 3, 5-(allyloxy)-3-(2,5-diphenylfuran-3-yl)-1H-indole]	moderate anti-ulcer efficacy
CCCOc1ccc2[nH]cc(-c3cc(-c4ccccc4)oc3-c3ccccc3)c2c1 [compound 4, 3-(2,5-diphenylfuran-3-yl)-5-propoxy-1H-indole]	moderate anti-ulcer efficacy
Cc1c(-c2cc(-c3ccccc3)oc2-c2ccccc2)c2ccccc2n1C [compound 11, 1,2-dimethyl-3-(2,5-diphenylfuran-3-yl)-1H-indole]	not acceptable to have good anti-ulcer activity
COc1cccc2c1c(-c1cc(-c3ccccc3)oc1-c1ccccc1)cn2C [compound 12, 4-methoxy-1-methyl-3-(2,5-diphenylfuran-3-yl)-1H-indole]	not acceptable to have good anti-ulcer activity

Test system: indomethacin-induced acute gastric ulcers
Experiment: Protection studies of gastric ulceration in vivo (indomethacin-induced acute gastric ulcer, ulcer index)
Set-up: species or system Balb/c mice
Details: Mus musculus, po, 4 h; 12 mg/kg body weight, indomethacin 80 mg/kg, Balb/c mice
Description: Animal experiments were carried out using Balb/c mice (20-25 g). Animals were anesthetized with ketamine (12 mg/kg b.w.) prior to cervical dislocation. Control and experimental animals were fasted for 6 hr with free access to water.
Balb/c mice (20-25 g) bred in-house with free access to food and water was used for all experiments. Experiments were designed to minimize animal suffering and to use the minimum number associated with valid statistical evaluation. Animals were anesthetized with ketamine (12 mg/kg b.w.) followed by cervical dislocation. Animal experiments were carried out following the guidelines of animal ethics committee of the institute. Control and experimental animals were fasted for 6 h with free access to water.
Before ulcer induction, animals of both control and experimental groups were kept separately in standard controlled conditions. Acute gastric ulcers were induced by oral administration of indomethacin at a dose of 80 mg/kg b.w. The control group received the vehicle only (olive oil), whereas the experimental group received indomethacin for gastric ulceration. After 4 h, the animals were sacrificed and gastric lesions in the fundic stomach were scored and expressed as obtained by counting the number of red bands/dots as follows: 0=no pathology; 1=a small pinhead ulcer spot; and 2-5=a band like lesion of 2-5 mm length. Total score become ˜50 when ulcer is severe. The sum of the total scores as divided by the number of animals was expressed as the mean ulcer index. Formulations were administered orally 30 min prior to indomethacin treatment to check the gastroprotective effect. Among all the chemical compositions of 3-indolyl furanoids synthesized (table 1), compounds 1, 2, 5, 8, 9 and 12 were tested for prevention studies against gastric inflammation in vivo.

SMILES	inhibition in vivo at 12 mg/kg [%]
COc1ccc2[nH]c([S+]([O-])Cc3ncc(C)c(OC)c3C)nc2c1 (centres unmarked) [Omeprazole, reference compound]	100

Same assay, conditions: Mus musculus; 50 mg/kg body weight oral in olive oil, indomethacin 80 mg/kg, scored after 4 h, Balb/c mice

SMILES	inhibition in vivo at 50 mg/kg [%]
Oc1ccc2[nH]cc(-c3cc(-c4ccccc4)oc3-c3ccccc3)c2c1 [compound 1, 3-(2,5-diphenylfuran-3-yl)-1H-indol-5-ol]	78
COc1ccc2[nH]cc(-c3cc(-c4ccccc4)oc3-c3ccccc3)c2c1 [compound 2, 3-(2,5-diphenylfuran-3-yl)-5-methoxy-1H-indole]	83
COc1ccc2[nH]cc(-c3cc(-c4ccccc4)oc3-c3ccccc3)c2c1OC [compound 6, 4,5-dimethoxy-3-(2,5-diphenylfuran-3-yl)-1H-indole]	74
c1ccc(-c2cc(-c3c(-c4ccccc4)[nH]c4ccccc34)c(-c3ccccc3)o2)cc1 [compound 8, 2-phenyl-3-(2,5-diphenylfuran-3-yl)-1H-indole]	65
Oc1ccccc1-c1[nH]c2ccccc2c1-c1cc(-c2ccccc2)oc1-c1ccccc1 [compound 9, 3-(2,5-diphenylfuran-3-yl)-2-(2-hydroxyphenyl)-1H-indole]	72
COc1cccc2c1c(-c1cc(-c3ccccc3)oc1-c1ccccc1)cn2C [compound 12, 4-methoxy-1-methyl-3-(2,5-diphenylfuran-3-yl)-1H-indole]	56
